Assay results as given in ChEMBL document CHEMBL4346730 (Bioorg Med Chem, 2019).
≈ marks a conversion by molar mass, not a printed value.

What was measured:
[1] = Solubility in artificial interstitial fluid at pH 5 by HPLC analysis; assay type: physicochemical
[2] = Inhibition of bovine corpus striatum PDE10A using [3H]cAMP or [3H]cGMP as substrate preincubated for 5 mins followed by substrate addition and measured after 30 mins by liquid scintillation counting method; set-up: species or system Bos taurus
hERG (KCNH2) = hERG (KCNH2) (Homo sapiens, UniProt Q12809); experiment: Inhibition of human ERG at 1 uM relative to control
Sequence of hERG (KCNH2) (Q12809 whole entry): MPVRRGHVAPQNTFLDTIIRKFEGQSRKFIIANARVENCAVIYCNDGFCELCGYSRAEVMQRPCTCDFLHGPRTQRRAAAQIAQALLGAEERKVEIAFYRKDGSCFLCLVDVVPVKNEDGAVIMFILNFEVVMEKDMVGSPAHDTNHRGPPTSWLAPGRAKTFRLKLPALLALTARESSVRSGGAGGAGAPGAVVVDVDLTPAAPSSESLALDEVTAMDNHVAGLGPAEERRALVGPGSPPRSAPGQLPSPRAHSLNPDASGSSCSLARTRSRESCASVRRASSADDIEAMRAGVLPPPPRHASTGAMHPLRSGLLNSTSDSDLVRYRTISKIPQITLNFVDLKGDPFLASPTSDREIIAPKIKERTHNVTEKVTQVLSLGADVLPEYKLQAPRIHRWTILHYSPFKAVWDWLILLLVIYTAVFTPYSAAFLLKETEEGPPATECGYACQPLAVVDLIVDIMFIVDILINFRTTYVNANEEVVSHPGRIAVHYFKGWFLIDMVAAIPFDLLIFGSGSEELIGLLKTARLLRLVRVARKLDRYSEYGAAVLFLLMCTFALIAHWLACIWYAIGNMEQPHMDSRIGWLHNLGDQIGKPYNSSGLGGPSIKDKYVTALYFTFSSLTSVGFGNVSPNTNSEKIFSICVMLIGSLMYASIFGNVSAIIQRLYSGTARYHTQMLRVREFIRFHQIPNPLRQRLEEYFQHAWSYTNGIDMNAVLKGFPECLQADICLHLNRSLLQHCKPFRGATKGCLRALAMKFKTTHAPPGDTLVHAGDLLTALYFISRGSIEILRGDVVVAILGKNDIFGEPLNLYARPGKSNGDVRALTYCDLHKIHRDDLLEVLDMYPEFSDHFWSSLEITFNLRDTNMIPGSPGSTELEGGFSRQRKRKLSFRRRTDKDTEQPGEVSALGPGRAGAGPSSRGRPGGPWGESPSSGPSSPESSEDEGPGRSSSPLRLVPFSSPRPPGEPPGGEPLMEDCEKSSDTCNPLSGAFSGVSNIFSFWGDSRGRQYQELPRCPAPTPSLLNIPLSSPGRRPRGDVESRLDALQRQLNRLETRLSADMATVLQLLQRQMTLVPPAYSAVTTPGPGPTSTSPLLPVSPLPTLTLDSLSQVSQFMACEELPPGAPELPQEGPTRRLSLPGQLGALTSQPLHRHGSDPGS

[3] = Chromatographic hydrophobicity index, log D of the compound at pH 7.4 by reverse-phase HPLC analysis; assay type: physicochemical; conditions: buffer
[4] = Ratio of IC50 for PDE4 (unknown origin) to IC50 for bovine corpus striatum PDE10A
[5] = Ratio of IC50 for PDE6 (unknown origin) to IC50 for bovine corpus striatum PDE10A
[6] = molecular target: cAMP and cAMP-inhibited cGMP 3',5'-cyclic phosphodiesterase 10A (Homo sapiens, UniProt Q9Y233); experiment: Inhibition of human N-terminal FLAG-tagged PDE10A (1 to 90 residues) expressed in using African green monkey COS7 cells using [3H]cAMP or [3H]cGMP as substrate preincubated for 5 mins followed by substrate addition and measured after 30 mins by liquid scintillation counting method
Sequence of cAMP and cAMP-inhibited cGMP 3',5'-cyclic phosphodiesterase 10A (Q9Y233 whole entry, the tested form may be a part): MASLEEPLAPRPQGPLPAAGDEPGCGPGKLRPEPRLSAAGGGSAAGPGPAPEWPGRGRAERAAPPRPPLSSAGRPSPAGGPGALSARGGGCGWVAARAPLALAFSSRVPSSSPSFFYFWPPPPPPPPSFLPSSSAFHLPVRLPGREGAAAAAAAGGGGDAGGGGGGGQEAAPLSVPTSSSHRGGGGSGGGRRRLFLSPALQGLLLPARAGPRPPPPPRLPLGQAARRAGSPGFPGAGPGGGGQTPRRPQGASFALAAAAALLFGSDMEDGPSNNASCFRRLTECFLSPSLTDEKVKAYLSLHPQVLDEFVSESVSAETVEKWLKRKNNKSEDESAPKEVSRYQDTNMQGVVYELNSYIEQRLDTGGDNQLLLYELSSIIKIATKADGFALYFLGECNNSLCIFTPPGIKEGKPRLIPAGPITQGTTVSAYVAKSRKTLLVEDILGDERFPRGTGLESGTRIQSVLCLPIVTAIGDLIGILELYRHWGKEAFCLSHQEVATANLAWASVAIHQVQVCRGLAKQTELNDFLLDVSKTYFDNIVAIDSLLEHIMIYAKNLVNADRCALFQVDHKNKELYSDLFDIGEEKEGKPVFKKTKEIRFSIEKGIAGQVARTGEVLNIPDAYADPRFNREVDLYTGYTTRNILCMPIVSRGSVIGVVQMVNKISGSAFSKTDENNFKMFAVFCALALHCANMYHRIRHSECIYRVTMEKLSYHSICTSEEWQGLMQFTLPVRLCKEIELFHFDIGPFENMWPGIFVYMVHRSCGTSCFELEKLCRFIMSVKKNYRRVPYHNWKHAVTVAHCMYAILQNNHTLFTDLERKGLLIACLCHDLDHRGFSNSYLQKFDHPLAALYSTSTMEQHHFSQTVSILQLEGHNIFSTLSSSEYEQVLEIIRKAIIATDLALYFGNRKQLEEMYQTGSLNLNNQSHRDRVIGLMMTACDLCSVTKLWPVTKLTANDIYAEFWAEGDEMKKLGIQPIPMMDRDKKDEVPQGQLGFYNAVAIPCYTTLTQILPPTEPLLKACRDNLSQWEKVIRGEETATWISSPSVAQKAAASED

[7] = Ratio of IC50 for PDE9A (unknown origin) to IC50 for bovine corpus striatum PDE10A
[8] = Ratio of IC50 for PDE2A (unknown origin) to IC50 for bovine corpus striatum PDE10A
[9] = Ratio of IC50 for PDE11A (unknown origin) to IC50 for bovine corpus striatum PDE10A
[10] = Intrinsic clearance in human liver microsomes; assay type: ADME, Microsome; conditions: read-out: CLH
[11] = Ratio of IC50 for PDE5A (unknown origin) to IC50 for bovine corpus striatum PDE10A
[12] = Half life in Wistar rat at 0.3 mg/kg, iv; assay type: ADME, organism-based; conditions: in vivo
[13] = Ratio of IC50 for PDE3A (unknown origin) to IC50 for bovine corpus striatum PDE10A
[14] = Ratio of IC50 for PDE1 (unknown origin) to IC50 for bovine corpus striatum PDE10A
[15] = Ratio of IC50 for PDE7B (unknown origin) to IC50 for bovine corpus striatum PDE10A
[16] = Ratio of IC50 for PDE8A (unknown origin) to IC50 for bovine corpus striatum PDE10A
[17] = Unbound brain-to-plasma concentration ratio in Wistar rat at 3 mg/kg, po; assay type: ADME, organism-based
[18] = Oral bioavailability in Wistar rat at 3 mg/kg; assay type: ADME, organism-based; conditions: in vivo
[19] = Volume of distribution at steady state in Wistar rat at 0.3 mg/kg, iv; conditions: in vivo
[20] = molecular target: cGMP-specific 3',5'-cyclic phosphodiesterase (Homo sapiens, UniProt O76074); experiment: Inhibition of PDE5A (unknown origin)
Phosphodiesterase 6 = experiment: Inhibition of PDE6 (unknown origin); assay type: protein assay, Homo sapiens
[21] = Clearance in Wistar rat at 0.3 mg/kg, iv; conditions: in vivo
Rattus norvegicus = experiment: Antipsychotic activity in po dosed Wistar rat assessed as inhibition of electric stimulation-induced conditioned avoidance responses measured up to 6 days; assay type: functional; conditions: 144 h, read-out: ID50 (the source's name)
Phosphodiesterase 4 = Phosphodiesterase 4 (Homo sapiens, UniProt P27815+Q08499+Q07343+Q08493); experiment: Inhibition of PDE4 (unknown origin); assay type: protein assay

solubility [1] | IC50 [2] | CHI [3] | SMILES | inhibition at 1 µM (hERG (KCNH2)) | other results
32 µg/mL | 0.78 nM |  | Cc1nc2c(C)cccc2nc1-c1cc2nc(N3CCCC3)cc(NC3CCOCC3)n2n1.Cl | 94% | 
 | 0.41 nM |  | Cc1nc2ccccc2nc1-c1cn2nc(N3CCCC3)cc(NC3CCOCC3)c2n1 |  | 
 | 71 nM |  | Cc1nc2ccccc2nc1-c1cn2c(NC3CCOCC3)cc(N3CCCC3)nc2n1 |  | 
19 µg/mL | 0.033 nM |  | Cc1ccc2nc(C)c(-c3cc4nc(N5CCCC5)cc(N[C@H]5CC[C@H](O)CC5)n4n3)nc2c1.Cl |  | 
5.1 µg/mL | 0.08 nM | 4.1 | CO[C@H]1CC[C@H](Nc2cc(N3CCCC3)nc3cc(-c4nc5cc(C)ccc5nc4C)nn23)CC1.Cl | 40% | 
15 µg/mL | 0.0088 nM | 3.23 | Cc1nc2ccc(F)cc2nc1-c1cc2nc(N3CCCC3)cc(N[C@H]3CC[C@](C)(O)CC3)n2n1.Cl | 12% | 
> 1000 µg/mL | 0.09 nM | 3.4 | Cc1ccc2nc(C)c(-c3cc4nc(N5CCCC5)cc(NC5CCOCC5)n4n3)nc2c1.Cl | 64% | 
4.8 µg/mL |  |  | Cc1nc2ccccc2nc1-c1cc2nc(N3CC[C@@H](F)C3)cc(N(C)C3CCOCC3)n2n1.Cl |  | Ratio IC50 [4]: > 1000; Ratio IC50 [5]: > 1000; IC50 [6]: 0.061 nM; Ratio IC50 [7]: > 1000; Ratio IC50 [8]: > 1000; Ratio IC50 [9]: > 1000; microsomal CLint [10]: 127 µL/min/mg; Ratio IC50 [11]: > 1000; half-life [12]: 3.2 h; Ratio IC50 [13]: > 1000; Ratio IC50 [14]: > 1000; Ratio IC50 [15]: > 1000; Ratio IC50 [16]: > 1000; Kp uu ([17]; Wistar, brain and plasma, read-out: K(p,uu,brain)): 0.61; bioavailability [18]: 19.2%
8.1 µg/mL (≈ 18.9 µM) | 0.15 nM |  | Cc1nc2ccccc2nc1-c1cc2nc(N3CCCC3)cc(NC3CCOCC3)n2n1 | 63% | 
8.7 µg/mL | 0.0081 nM | 3.07 | Cc1nc2ccc(F)cc2nc1-c1cc2nc(N3CCCC3)cc(NCC(C)(C)O)n2n1.Cl | 50% | 
121 µg/mL | 0.02 nM |  | Cc1nc2cccc(C)c2nc1-c1cc2nc(N3CCCC3)cc(NC3CCOCC3)n2n1.Cl | 99% | 
17 µg/mL | 0.46 nM |  | Cc1ccc2nc(-c3cc4nc(N5CCCC5)cc(NC5CCOCC5)n4n3)c(C)nc2c1.Cl | 80% | 
62 µg/mL | 0.036 nM | 3.29 | Cc1ccc2nc(C)c(-c3cc4nc(N5CCCC5)cc(N[C@H]5CC[C@](C)(O)CC5)n4n3)nc2c1.Cl | 29% | 
118 µg/mL | 0.09 nM | 2.79 | Cc1nc2ccc(F)cc2nc1-c1cc2nc(N3CC[C@@H](F)C3)cc(NCC(C)(C)O)n2n1.Cl | 23% | Vdss [19]: 2.307 L/kg; IC50 [6]: 0.062 nM; IC50 [20]: 437 nM; IC50 (Phosphodiesterase 6): 561 nM; half-life [12]: 3.09 h; CL [21]: 8.77 mL/min/kg; K(p,uu,brain) ([17]; brain): 0.5; ED50 (Rattus norvegicus): 0.32 mg/kg; IC50 (Phosphodiesterase 4): 289 nM; bioavailability [18]: 43.7%
 | 6 nM |  | Cc1nc2ccccc2nc1-c1nc2nc(N3CCCC3)cc(NC3CCOCC3)n2n1 |  | 
 | 0.14 nM |  | Cc1nc2ccc(F)cc2nc1/C=C/c1nc(NC2CCOCC2)cc(N2CCCC2)n1 |  | 
